Reference: patent US8603527B2, “Pharmaceutical formulations of a substituted diaminopurine” (Signal Pharmaceuticals, LLC, priority 2010, dated 2013)
Read-outs that look alike come from different tables or passages of the source.

Test: Toxicokinetics in pregnant female rabbits
Type: in vivo, rabbit
Conditions: for Kp / AUC / Cmax: female, New Zealand White Hra:(NZW)SPF, rabbit; for Kp: fetal plasma / maternal plasma, oral, Gestation Day 19, calculated from individual ratios, read-out: Fetal:Maternal Plasma Ratio; for Kp / Doe plasma concentration / Fetus concentration (pooled fetal blood samples): rabbits; for AUC / Cmax: po, pregnant rabbits; for Doe plasma concentration / Fetus concentration (pooled fetal blood samples): 2 hours after dosing on Gestation Day 19
[1] = plasma, 10 mg/kg/day, 10 mg/kg/d oral, Gestation Day 7
[2] = plasma, 10 mg/kg/day, 10 mg/kg/d oral, Gestation Day 18
[3] = plasma, 20 mg/kg/day, 20 mg/kg/d oral, Gestation Day 7
[4] = plasma, 40 mg/kg/day, 40 mg/kg/d oral, Gestation Day 7
[5] = plasma, 40 mg/kg/day, 40 mg/kg/d oral, Gestation Day 18

From the text: Additionally, four groups of five animals/group served as toxicokinetic (TK) animals and received the vehicle or test article in the same manner and dose levels as the main study groups. All time-mated females arrived at the laboratory on GD 0, the day evidence of mating was observed.

Compound: O[C@H]1CC[C@H](Nc2ncc3nc(Nc4c(F)cc(F)cc4F)n([C@H]4CCOC4)c3n2)CC1 [Compound I, 4-((9-((3S)-tetrahydro-3-furanyl)-8-((2,4,6-trifluorophenyl)amino)-9H-purin-2-yl)amino)-trans-cyclohexanol]
- Kp (10 mg/kg/day, 10 mg/kg/d): 0.1
- Kp (20 mg/kg/day, 20 mg/kg/d): 0.09
- Kp (40 mg/kg/day, 40 mg/kg/d): 0.24
- AUC (in vivo, 20 mg/kg/day, 20 mg/kg/d oral, Gestation Day 18): 85000 ng·h/mL
- AUC [1]: 35200 ng·h/mL
- Cmax [1]: 6520 ng/mL
- AUC [2]: 39300 ng·h/mL
- Cmax [2]: 6730 ng/mL
- AUC [3]: 79100 ng·h/mL
- Cmax [3]: 12500 ng/mL
- Cmax (plasma, 20 mg/kg/day, 20 mg/kg/d oral, Gestation Day 18): 13200 ng/mL
- AUC [4]: 152000 ng·h/mL
- Cmax [4]: 21200 ng/mL
- AUC [5]: 152000 ng·h/mL
- Cmax [5]: 21500 ng/mL
- maternal AUC as fold of human AUC (rabbits at NOAEL 20 mg/kg/day vs human 100 mg BID): ~3.4 fold
- maternal AUC as fold of human AUC (rabbits at NOAEL 20 mg/kg/day vs human 200 mg BID): ~1.6 fold
- Doe plasma concentration (10 mg/kg/d): 4916 ng/mL
- Fetus concentration (pooled fetal blood samples) (10 mg/kg/d): 465.7 ng/mL
- Doe plasma concentration (20 mg/kg/d): 9217 ng/mL
- Fetus concentration (pooled fetal blood samples) (20 mg/kg/d): 870.7 ng/mL
- Doe plasma concentration (40 mg/kg/d): 15594 ng/mL
- Fetus concentration (pooled fetal blood samples) (40 mg/kg/d): 3426 ng/mL
